Usually IC50 stands for the concentration that inhibits the measured activity by half.

Consider 24 molecules from patent US20240293392A1, “INHIBITOR COMPOUNDS” (NeoPhore Limited, priority 2021, published 2024).

Structures are written as SMILES. A value given as a limit tells only on which side of the number the result lay.

Assay [1] addresses T1, recombinant N-terminal PMS2 (residues 1-365) (Homo sapiens, UniProt P54278).
T1 construct: recombinant N-terminal PMS2 (residues 1-365)
T1 sequence (P54278 1-365): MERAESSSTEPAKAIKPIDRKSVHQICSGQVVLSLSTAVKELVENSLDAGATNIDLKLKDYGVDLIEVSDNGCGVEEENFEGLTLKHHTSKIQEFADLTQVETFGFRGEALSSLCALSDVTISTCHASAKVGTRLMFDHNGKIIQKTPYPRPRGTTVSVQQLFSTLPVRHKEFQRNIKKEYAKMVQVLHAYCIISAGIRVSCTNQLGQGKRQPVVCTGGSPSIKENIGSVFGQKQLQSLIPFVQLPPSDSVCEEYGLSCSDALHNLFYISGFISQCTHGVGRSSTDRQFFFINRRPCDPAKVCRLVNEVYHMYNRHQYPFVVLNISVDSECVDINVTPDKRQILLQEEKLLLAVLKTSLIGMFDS
The assay is described as follows: Fluorescence Polarisation Assay for PMS2. In kind it is binding. Particulars: fluorescence polarisation probe displacement; 10 nM N-terminal PMS2, 5 nM probe compound; read-out: PMS2 IC50. Put shortly: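 Competition fluorescence polarisation with 10 nM N-terminal PMS2 and 5 nM fluorescent probe (final), read after 1 h at room temperature following 30 min compound pre-incubation. Data normalised to no-inhibitor and no-enzyme controls; single-point screening or serial dilutions for potency.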
A general note: In fluorescence polarisation assays a small probe gives low polarisation when free and higher when bound to something large.

Assay [2] deals with T2, recombinant N-terminal MLH1 (residues 15-340) (Homo sapiens, UniProt P40692).
T2 construct: recombinant N-terminal MLH1 (residues 15-340)
T2 sequence (P40692 15-340): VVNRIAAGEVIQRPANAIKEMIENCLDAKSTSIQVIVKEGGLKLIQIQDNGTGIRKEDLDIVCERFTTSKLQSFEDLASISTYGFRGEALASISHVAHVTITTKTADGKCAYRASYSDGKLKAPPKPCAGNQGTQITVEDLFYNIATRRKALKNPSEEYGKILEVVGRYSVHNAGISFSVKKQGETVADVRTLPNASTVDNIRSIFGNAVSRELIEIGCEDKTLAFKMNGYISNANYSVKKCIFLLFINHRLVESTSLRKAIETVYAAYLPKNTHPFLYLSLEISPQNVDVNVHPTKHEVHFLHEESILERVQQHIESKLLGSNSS
Kind of assay: Fluorescence Polarisation Assay for MLH1. In kind it is binding. Particulars: fluorescence polarisation probe displacement; 100 nM N-terminal MLH1, 5 nM probe compound. Put shortly: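 FP displacement assay: 100 nM MLH1 (residues 15-340) preincubated 30 min at room temperature with compound in 25 mM HEPES pH 7.5, 250 mM NaCl, 10 mM MgCl2, 0.01% Triton X-100, 5 mM DTT, then 5 nM rhodamine-labelled probe added and read immediately. Data normalised to no-inhibitor and no-enzyme controls.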

Consider `O=C(c1c(O)cc(O)cc1OCc1ccccn1)N1CCc2cccc(N[C@H]3CCOC3)c2C1` [Example 55, (S)-(2,4-Dihydroxy-6-(pyridin-2-ylmethoxy)phenyl)(8-((tetrahydrofuran-3-yl)amino)-3,4-dihydroisoquinolin-2(1H)-yl)methanone], for which the IC50 was 1 to 10 µM in assay [1] and less than 1 µM in assay [2].
In the case of `O=C(c1c(O)cc(O)cc1OCc1ccccn1)N1CCc2cccc(N[C@@H]3CCOC3)c2C1` [Example 56, (R)-(2,4-dihydroxy-6-(pyridin-2-ylmethoxy)phenyl)(8-((tetrahydrofuran-3-yl)amino)-3,4-dihydroisoquinolin-2(1H)-yl)methanone], the IC50 in assay [1] is more than 10 µM; in assay [2] it was less than 1 µM.
On to `O=C(c1c(O)cc(O)cc1OCc1ccccn1)N1CCc2cccc(NC3COC3)c2C1` [Example 57, (2,4-Dihydroxy-6-(pyridin-2-ylmethoxy)phenyl)(8-(oxetan-3-ylamino)-3,4-dihydroisoquinolin-2(1H)-yl)methanone], for which the concentration for half-maximal inhibition (IC50) in assay [1] was more than 10 µM; in assay [2], less than 1 µM.
On the same counts, the results for `CN1C[C@@H](Nc2cccc3c2CN(C(=O)c2c(O)cc(O)cc2OCc2ccccn2)CC3)CC1=O` [Example 58, (S)-4-((2-(2,4-Dihydroxy-6-(pyridin-2-ylmethoxy)benzoyl)-1,2,3,4-tetrahydroisoquinolin-8-yl)amino)-1-methylpyrrolidin-2-one] are more than 10 µM and less than 1 µM.
`CN1C[C@H](Nc2cccc3c2CN(C(=O)c2c(O)cc(O)cc2OCc2ccccn2)CC3)CC1=O` [Example 59, (R)-4-((2-(2,4-dihydroxy-6-(pyridin-2-ylmethoxy)benzoyl)-1,2,3,4-tetrahydroisoquinolin-8-yl)amino)-1-methylpyrrolidin-2-one]: the IC50 in assay [1] is 1 to 10 µM; in assay [2] it was less than 1 µM.
Turning to `COCCOc1cc2c(c(N[C@@H]3CCOC3)c1)CN(C(=O)c1c(O)cc(O)cc1OCc1ccccc1)CC2` [Example 60, (R)-(2-(Benzyloxy)-4,6-dihydroxyphenyl)(6-(2-methoxyethoxy)-8-((tetrahydrofuran-3-yl)amino)-3,4-dihydroisoquinolin-2(1H)-yl)methanone], the results for the IC50 in assay [1] and in assay [2] were more than 10 µM and less than 1 µM, respectively.
As to `O=C(c1c(O)cc(O)cc1OCc1ccccc1)N1CCc2nccc(N[C@H]3CCOC3)c2C1` [Example 63, (S)-(2-(Benzyloxy)-4,6-dihydroxyphenyl)(4-((tetrahydrofuran-3-yl)amino)-7,8-dihydro-1,6-naphthyridin-6(5H)-yl)methanone], the IC50 in assay [1] was 1 to 10 µM; in assay [2] it was less than 1 µM.
For `COCCOc1cc2c(c(N[C@H]3CCOC3)c1)CN(C(=O)c1c(O)cc(O)cc1OCc1ccccc1)CC2` [Example 64, (S)-(2-(Benzyloxy)-4,6-dihydroxyphenyl)(6-(2-methoxyethoxy)-8-((tetrahydrofuran-3-yl)amino)-3,4-dihydroisoquinolin-2(1H)-yl)methanone], in that order: 1 to 10 µM and less than 1 µM.
Turning to `CC(=O)N1CC[C@H](Nc2cccc3c2CN(C(=O)c2c(O)cc(O)cc2OCc2ccccc2)CC3)C1` [Example 65, (S)-1-(3-((2-(2-(Benzyloxy)-4,6-dihydroxybenzoyl)-1,2,3,4-tetrahydroisoquinolin-8-yl)amino)pyrrolidin-1-yl)ethan-1-one], the IC50 in assay [1] was more than 10 µM; in assay [2], less than 1 µM.
On the same counts, the results for `CC(=O)N1CC[C@@H](Nc2cccc3c2CN(C(=O)c2c(O)cc(O)cc2OCc2ccccc2)CC3)C1` [Example 66, (R)-1-(3-((2-(2-(Benzyloxy)-4,6-dihydroxybenzoyl)-1,2,3,4-tetrahydroisoquinolin-8-yl)amino)pyrrolidin-1-yl)ethan-1-one] are more than 10 µM and less than 1 µM.
On the same counts, the results for `CC(=O)N1CCC[C@H](Nc2cccc3c2CN(C(=O)c2c(O)cc(O)cc2OCc2ccccc2)CC3)C1` [Example 67, (S)-1-(3-((2-(2-(Benzyloxy)-4,6-dihydroxybenzoyl)-1,2,3,4-tetrahydroisoquinolin-8-yl)amino)piperidin-1-yl)ethan-1-one] are more than 10 µM and 1 to 10 µM.
Take `CC(=O)N1CCC[C@@H](Nc2cccc3c2CN(C(=O)c2c(O)cc(O)cc2OCc2ccccc2)CC3)C1` [Example 68, (R)-1-(3-((2-(2-(benzyloxy)-4,6-dihydroxybenzoyl)-1,2,3,4-tetrahydroisoquinolin-8-yl)amino)piperidin-1-yl)ethan-1-one]: the IC50 in assay [1] was more than 10 µM; in assay [2], less than 1 µM.
For `CC(=O)N1CCC(Nc2cccc3c2CN(C(=O)c2c(O)cc(O)cc2OCc2ccccc2)CC3)CC1` [Example 69, 1-(4-((2-(2-(Benzyloxy)-4,6-dihydroxybenzoyl)-1,2,3,4-tetrahydroisoquinolin-8-yl)amino)piperidin-1-yl)ethan-1-one], the IC50 is more than 10 µM in assay [1] and 1 to 10 µM in assay [2].
On to `CN1CC(Nc2cccc3c2CN(C(=O)c2c(O)cc(O)cc2OCc2ccccc2)CC3)CCC1=O` (stereo not drawn) [Example 70, 5-((2-(2-(Benzyloxy)-4,6-dihydroxybenzoyl)-1,2,3,4-tetrahydroisoquinolin-8-yl)amino)-1-methylpiperidin-2-one], for which the IC50 in assay [1] was more than 10 µM; in assay [2] it was less than 1 µM.
In the case of `O=C(c1c(O)cc(O)cc1OCc1ccccc1)N1CCc2cccc(Nc3cncnc3)c2C1` [Example 71, (2-(Benzyloxy)-4,6-dihydroxyphenyl)(8-(pyrimidin-5-ylamino)-3,4-dihydroisoquinolin-2(1H)-yl)methanone], the IC50 was 1 to 10 µM in assay [1] and less than 1 µM in assay [2].
For `NC(=O)c1cccc(Nc2cccc3c2CN(C(=O)c2c(O)cc(O)cc2OCc2ccccc2)CC3)c1` [Example 74, 3-((2-(2-(Benzyloxy)-4,6-dihydroxybenzoyl)-1,2,3,4-tetrahydroisoquinolin-8-yl)amino)benzamide], the IC50 in assay [1] and in assay [2] was more than 10 µM each time.
For the molecule `NC(=O)c1ccc(Nc2cccc3c2CN(C(=O)c2c(O)cc(O)cc2OCc2ccccc2)CC3)cc1` [Example 75, 4-((2-(2-(Benzyloxy)-4,6-dihydroxybenzoyl)-1,2,3,4-tetrahydroisoquinolin-8-yl)amino)benzamide], the IC50 in assay [1] and in assay [2] was more than 10 µM throughout.
For the molecule `O=C(c1c(O)cc(O)cc1OCc1ccccc1)N1CCc2cccc(NC3CCCC3)c2C1` [Example 76, (2-(Benzyloxy)-4,6-dihydroxyphenyl)(8-(cyclopentylamino)-3,4-dihydroisoquinolin-2(1H)-yl)methanone], the IC50 was more than 10 µM in assay [1] and 1 to 10 µM in assay [2].
`CN1CCC(Nc2cccc3c2CN(C(=O)c2c(O)cc(O)cc2OCc2ccccc2)CC3)CC1` [Example 77, (2-(Benzyloxy)-4,6-dihydroxyphenyl)(8-((1-methylpiperidin-4-yl)amino)-3,4-dihydroisoquinolin-2(1H)-yl)methanone]: the IC50 in assay [1] and in assay [2] was more than 10 µM each time.
For the molecule `CN1CCC(Nc2cccc3c2CN(C(=O)c2c(O)cc(O)cc2OCc2ccccc2)CC3)C1` (stereo not drawn) [Example 78, (2-(Benzyloxy)-4,6-dihydroxyphenyl)(8-((1-methylpyrrolidin-3-yl)amino)-3,4-dihydroisoquinolin-2(1H)-yl)methanone], the IC50 is more than 10 µM in assay [1] and less than 1 µM in assay [2].
Take `CNCc1cccc2c1CN(C(=O)c1c(O)cc(O)cc1OCc1ccccc1)C2` [Example 79, (2-(Benzyloxy)-4,6-dihydroxyphenyl) (4-((methylamino)methyl)isoindolin-2-yl) methanone]: the IC50 in assay [1] and in assay [2] was 1 to 10 µM each time.
Turning to `O=C(c1c(O)cc(O)cc1OCc1ccccc1)N1Cc2cccc(CNC3CCOC3)c2C1` (stereo not drawn) [Example 80, (2-(Benzyloxy)-4,6-dihydroxyphenyl)(4-(((tetrahydrofuran-3-yl)amino)methyl)isoindolin-2-yl)methanone], the IC50 in assay [1] and in assay [2] was 1 to 10 µM throughout.
For the molecule `O=C(c1c(O)cc(O)cc1OCc1ccccc1)N1Cc2cccc(CNC3COC3)c2C1` [Example 81, (2-(Benzyloxy)-4,6-dihydroxyphenyl)(4-((oxetan-3-ylamino)methyl)isoindolin-2-yl)methanone], the IC50 in assay [1] and in assay [2] was 1 to 10 µM each time.
As for `CC1(NCc2cccc3c2CN(C(=O)c2c(O)cc(O)cc2OCc2ccccc2)C3)COC1` [Example 82, (2-(Benzyloxy)-4,6-dihydroxyphenyl)(4-(((3-methyloxetan-3-yl)amino)methyl)isoindolin-2-yl)methanone], the IC50 was 1 to 10 µM in assay [1] and less than 1 µM in assay [2].
